Laboratory results reported in patent publication US20200345645A1, “COMPOSITIONS COMPRISING INDIGO AND/OR AN INDIGO DERIVATIVE AND METHODS OF USE THEREOF” (Azora Therapeutics, Inc., priority 2019, published 2020).
Like-named read-outs stand apart in the source and are kept apart here.

Tests used:
[1] = molecular target: T1, aryl hydrocarbon receptor (Homo sapiens, UniProt P35869); details: background statement, "It is known", cited from earlier work
T1 sequence (P35869 11-848): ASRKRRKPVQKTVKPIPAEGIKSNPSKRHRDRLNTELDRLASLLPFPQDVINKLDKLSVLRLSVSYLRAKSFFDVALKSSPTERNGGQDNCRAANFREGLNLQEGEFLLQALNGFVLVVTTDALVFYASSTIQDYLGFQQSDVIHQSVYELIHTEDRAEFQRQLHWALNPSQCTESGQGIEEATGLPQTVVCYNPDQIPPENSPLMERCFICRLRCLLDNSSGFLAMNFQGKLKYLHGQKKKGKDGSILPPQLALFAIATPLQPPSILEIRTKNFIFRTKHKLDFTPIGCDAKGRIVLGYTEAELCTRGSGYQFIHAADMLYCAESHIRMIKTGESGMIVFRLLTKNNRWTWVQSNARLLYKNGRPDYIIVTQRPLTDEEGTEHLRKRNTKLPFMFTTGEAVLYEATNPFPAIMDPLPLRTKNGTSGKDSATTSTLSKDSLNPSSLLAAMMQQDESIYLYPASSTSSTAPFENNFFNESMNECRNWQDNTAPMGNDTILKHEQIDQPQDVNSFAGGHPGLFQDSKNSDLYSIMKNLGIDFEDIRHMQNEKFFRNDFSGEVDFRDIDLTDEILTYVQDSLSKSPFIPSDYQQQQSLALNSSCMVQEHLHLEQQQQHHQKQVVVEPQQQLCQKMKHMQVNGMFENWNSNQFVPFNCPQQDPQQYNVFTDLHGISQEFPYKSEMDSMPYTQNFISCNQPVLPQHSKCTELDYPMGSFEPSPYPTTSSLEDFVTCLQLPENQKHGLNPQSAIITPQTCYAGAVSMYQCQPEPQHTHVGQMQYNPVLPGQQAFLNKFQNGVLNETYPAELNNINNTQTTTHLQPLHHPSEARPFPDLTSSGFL

[2] = molecular target: human AhR (Homo sapiens, UniProt P35869); details: 24 hours incubation, reporter cells from human Huh7 cells expressing human AhR and ARNT
Chain of human AhR (P27540 whole entry partner, one chain of several): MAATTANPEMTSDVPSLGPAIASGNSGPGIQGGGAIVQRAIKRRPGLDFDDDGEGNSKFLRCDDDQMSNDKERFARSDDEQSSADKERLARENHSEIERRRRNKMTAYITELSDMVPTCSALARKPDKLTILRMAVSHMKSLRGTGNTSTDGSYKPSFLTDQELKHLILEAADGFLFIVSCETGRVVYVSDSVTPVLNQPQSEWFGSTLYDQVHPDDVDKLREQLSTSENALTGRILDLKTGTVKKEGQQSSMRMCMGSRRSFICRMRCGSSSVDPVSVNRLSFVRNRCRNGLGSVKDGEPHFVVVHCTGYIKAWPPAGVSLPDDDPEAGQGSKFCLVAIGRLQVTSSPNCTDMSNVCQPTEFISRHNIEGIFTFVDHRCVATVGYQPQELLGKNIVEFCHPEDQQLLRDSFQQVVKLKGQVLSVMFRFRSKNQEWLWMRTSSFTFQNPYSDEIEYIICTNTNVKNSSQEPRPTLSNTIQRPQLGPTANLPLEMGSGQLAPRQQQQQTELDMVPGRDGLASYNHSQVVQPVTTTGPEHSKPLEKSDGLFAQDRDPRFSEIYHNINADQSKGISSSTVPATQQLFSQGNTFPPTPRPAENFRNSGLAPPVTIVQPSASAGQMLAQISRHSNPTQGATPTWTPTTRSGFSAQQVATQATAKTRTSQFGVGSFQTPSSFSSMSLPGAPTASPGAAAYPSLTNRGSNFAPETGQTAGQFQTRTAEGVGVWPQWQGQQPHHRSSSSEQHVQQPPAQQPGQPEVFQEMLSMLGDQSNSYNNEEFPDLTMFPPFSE
Procedure: Each was incubated for 24 hours with reporter cells made from human Huh7 cells expressing human AhR and ARNT with luciferase expressed behind a genetic response element that responds to dimerized AhR/ARNT.
After incubation, the medium was aspirated and a detection reagent was added followed by a measurement of the relative luminescent units compared to a negative control of DMSO.

[3] = Release of indirubin into fasted-state simulated intestinal fluid (FaSSIF), HPLC; format: physicochemical; details: for Amount of indirubin in % Q (measured amount in solution divided by theoretical maximum) / Amount of indirubin in solution: FaSSIF pH 6.5, 37° C., 2 mg total indirubin in 500 mL; for Amount of indirubin in solution: mean of six replicates
Procedure: Additional solid amorphous dispersions of synthetic indirubin in six different hydrophilic carrier polymers-povidone, PVAc-PVCap-PEG, (SOLUPLUS®), copovidone, HPMC-AS, HPMCP and polyvinyl acetate phthalate (PVAP)—were prepared for a further study, as described in Example 15. In this study, dispersions with indirubin to polymer ratios of 1:9 or 0.5:9.5 were prepared, and the release of indirubin into fasted-state simulated intestinal fluid was determined. For comparison, Indigo naturalis and crystalline synthetic indirubin were also tested. The amount of indirubin in fasted-state simulated intestinal fluid was determined by HPLC for samples of the fluid taken. The mean amount of indirubin in solution at each time point was determined, and is shown in Table 1 in units of μg/L and in Table 2 as a percentage, referred to a % Q, of measured amount (mass) of indirubin in solution divided by the theoretical maximum amount (mass) of indirubin in solution.
Solid amorphous dispersions of synthetic indirubin in six different hydrophilic carrier polymers-povidone, PVAc-PVCap-PEG, (SOLUPLUS®), copovidone, HPMC-AS, HPMCP and polyvinyl acetate phthalate (PVAP) with indirubin to polymer ratios of 1:9 or 0.5 to 9.5 were prepared as described in Example 13. For comparison, Indigo naturalis and crystalline synthetic indirubin were also tested. All test articles were normalized to a total indirubin of 2 mg and added to 500 mL of fasted-state simulated intestinal fluid (FaSSIF) medium consisting of 3 mM taurocholate, 0.75 mM phospholipids, 148 mM sodium, 106 mM chloride, and 29 mM phosphate at pH 6.5. Six replicates of each test article were assessed under the following testing conditions: mixing with USP #2 paddles at 100 RPM at 37° C. with sampling of 5 mL at each time point and filtration through a 10 μm filter. […] The mean amount of indirubin in solution at each time point was determined, and is shown in Table 1 in units of μg/L and in Table 2 as a percentage, referred to a % Q, of measured amount (mass) of indirubin in solution divided by the theoretical maximum amount (mass) of indirubin in solution.

Structure (SMILES) | Agonism of the aryl hydrocarbon receptor [1] | Activation of the AhR receptor (fold activation relative to DMSO, FIG. 4) [2] | Amount of indirubin in % Q (measured amount in solution divided by theoretical maximum) ([3]; 5 min) [% Q] | Amount of indirubin in solution ([3]; 5 min) [µg/L] | Amount of indirubin in % Q (measured amount in solution divided by theoretical maximum) ([3]; 10 min) [% Q] | Amount of indirubin in solution ([3]; 10 min) [µg/L] | Amount of indirubin in % Q (measured amount in solution divided by theoretical maximum) ([3]; 20 min) [% Q] | Amount of indirubin in solution ([3]; 20 min) [µg/L] | Amount of indirubin in % Q (measured amount in solution divided by theoretical maximum) ([3]; 30 min) [% Q] | Amount of indirubin in solution ([3]; 30 min) [µg/L] | Amount of indirubin in % Q (measured amount in solution divided by theoretical maximum) ([3]; 60 min) [% Q] | Amount of indirubin in solution ([3]; 60 min) [µg/L] | Amount of indirubin in % Q (measured amount in solution divided by theoretical maximum) ([3]; 90 min) [% Q] | Amount of indirubin in solution ([3]; 90 min) [µg/L] | Amount of indirubin in % Q (measured amount in solution divided by theoretical maximum) ([3]; 120 min) [% Q] | Amount of indirubin in solution ([3]; 120 min) [µg/L] | Release of indirubin, of the total amount of indirubin ([3]; FaSSIF, summary of Tables 1 and 2) | Agonism of the aryl hydrocarbon receptor ([1]; listed as Indigo)
O=C1Nc2ccccc2/C1=C1/Nc2ccccc2C1=O [Synthetic Indirubin, indirubin] | potent agonists | potent activator | 0.02 | 0.02 | 0.03 | 0.03 | 0.03 | 0.03 | 0.03 | 0.03 | 0.04 | 0.04 | 0.05 | 0.05 | 0.07 | 0.07 | Less than 0.1% | 
O=C1/C(=C2\Nc3ccccc3C2=O)Nc2ccccc21 [indigo] | potent agonists |  |  |  |  |  |  |  |  |  |  |  |  |  |  |  |  | less potent than indirubin
